In patent US5869234A, “Method of identifying compounds which modulate herpesvirus infection” (President and Fellows of Harvard College, priority 1996, dated 1999):
Ends that are not written are not given here.

What was measured:
ICP4 = experiment: In vitro phosphorylation of purified ICP4 without added kinase; assay type: biochemical, HSV-1; details: 1 mM
Experimental: In vitro phosphorylation of purified ICP4 proteins with PKA or without added kinase. Approximately 20 ng of the ICP4 protein purified as described previously (Imbalzano, A. N., Shepard, A. A. and DeLuca, N. A., J. Virol., 64:2620-2631 (1990)) was added to a solution containing 10 mM Tris (pH 7.2), 10 mM MgCl2, 50 mM NaCl, 10 mM DTT and 20 μM (0.15 mCi) [γ-^32 P]ATP. The phosphorylation reaction was initiated by adding 60 U of protein kinase A type I catalytic subunit purified from bovine heart (Sigma Chem. Co., 1000 U/0.016 mg protein). Reaction mixtures were incubated at 30° C. for 30 min and stopped by addition of SDS-sample buffer. Equal portions of the reactions were analyzed by SDS-PAGE and transferred onto a nitrocellulose sheet for exposure to Kodak X-AR film and for staining with an ICP4-specific antibody. In some cases, the reaction mixtures were terminated by addition of 0.5 ml lysis buffer, and immunoprecipitation was conducted exactly as described above.
When an equivalent amount of d8-10 ICP4 protein was incubated, no labeled band was observed (Example 1; FIG. 5A, lane 3). The amount of phosphorylation in the absence of added enzyme was approximately one-tenth the level of phosphorylation in the presence of PKA. This phosphorylation in the absence of added enzyme may have resulted from an enzyme tightly bound to ICP4 or from an activity intrinsic to ICP4 itself. […]

viral DNA synthesis = details: cited from earlier work
[1] = cited from earlier work
[2] = molecular target: T1, protein kinase A type I catalytic subunit (Bos taurus, UniProt P00517); experiment: In vitro phosphorylation of a synthetic peptide by PKA; assay type: biochemical, bovine; details: for Ratio**: ratio defined in footnote drawing 1
T1 construct: purchased Sigma Chem. Co; host or cells: bovine heart
Experimental: (§1) ii) In vitro phosphorylation of a synthetic peptide. A peptide containing a potential protein kinase A site in the serine-rich region of ICP4 (RRRRHGRWRPSASST, residues 165-179) (SEQ ID NO: 2 ) was synthesized on an Applied Biosystems model 430A automated peptide synthesizer and purified by HPLC. Amino acid analysis confirmed the authenticity of this peptide, termed ICP4tide. ICP4tide (100 μM), or Kemptide (LRRASLG, Sigma Inc.), a commercially available substrate for protein kinase A ([…]), was then incubated at 30° C. in a solution containing 24 mM MES (pH 7.0), […], 5.6 nM [^32 P]ATP (300-600 Ci/mmol). Each reaction was subsequently initiated by adding 80 U of protein kinase A type I catalytic subunit purified from bovine heart (Sigma Chem. Co., 1000U/0.016 mg protein) to a final volume of 52.5 μl. Following incubation for 4 minutes, 20 μl of the reaction was spotted onto P81 phosphocellulose strips, and phosphopeptides were quantitated after washing three times in […] of 75 mM phosphoric acid as previously described (Roskoski, R. Jr., Methods in Enzymology, 99:3-6 (1983)). For kinetic studies, the concentration of ICP4tide was varied as indicated. The ICP4tide was also phosphorylated in a manner similar to those described below for phosphorylation of purified ICP4 proteins with PKA except that synthetic peptide replaced the purified ICP4 and the ATP concentration was increased to 60 mM. Such phosphorylated peptides were resolved in a 27% SDS-polyacrylamide gel.
(§2) Accordingly, a peptide, named ICP4tide (RRRRHGRWRPSASST, residues 165-179) (SEQ ID NO: 2), corresponding to this potential site was synthesized and incubated in vitro with purified type I catalytic subunits of PKA and [γ-^32 P]ATP. Kemptide (LRRASLG) (SEQ ID NO: 5), a commercially available substrate for PKA, was used as a positive control.
(§3) To determine the Km values of these reactions, we incubated different concentrations of ICP4tide with [Y-^32 P]ATP and a fixed amount of PKA catalytic subunits (80 U each) for 4 min at 30° C. Varying amounts of ICP4tide were incubated with […] of PKA and 60 μM ATP, and the incorporation of ^32 P into ICP4tide was determined. From the Lineweaver-Burk representation of the data, the Km was determined as described (Michael, N., Spector, D., Mavromara-Nazos, P., Kristie, T. M. and Roizman, B., Science, 239:1531-1534 (1988)). […] Thus, the synthetic ICP4tide could be considered to be a good substrate for PKA in vitro.

[3] = test system: CC(C)C[C@H](NC(=O)[C@H](CO)NC(=O)[C@H](C)NC(=O)[C@H](CCCNC(=N)N)NC(=O)[C@H](CCCNC(=N)N)NC(=O)[C@@H](N)CC(C)C)C(=O)NCC(=O)O; experiment: as above; assay type: biochemical, bovine; details: other: Lineweaver-Burk, PKA catalytic subunits, 4 min at 30° C., 60 μM ATP, pH 7.0
Experimental: as §1, §2, §3

With `[Mn+2]` [Mn^+2] the “effect on phosphorylation of ICP4 in the absence of added kinase” value (ICP4) was “inhibited”.

For `Nc1nc2c(ncn2COCCO)c(=O)[nH]1` [acyclovir], the “effect on viral DNA synthesis” value (viral DNA synthesis) is given as “inhibits viral DNA synthesis”.

For `Nc1ncnc2c1ncn2[C@@H]1O[C@H](CO)[C@@H](O)[C@@H]1O` [vidarabine], the “effect on viral DNA synthesis” value (viral DNA synthesis) is listed as “inhibits viral DNA synthesis” and the “properties in some experimental models” value [1] is listed as “teratogenic, mutagenic and carcinogenic properties”.

For LRRASLG [Kemptide, LRRASLG], the “Phosphorylation (cpm)” value ([2]; +PKA) was 768687 cpm, the “γ^32 P incorporated (%)” value ([2]; +PKA) was 26.1% and the “Ratio**” value ([2]; +PKA) was 88.5. For the same compound, the “Phosphorylation (cpm)” value ([2]; -PKA) was 8682 cpm and the “γ^32 P incorporated (%)” value ([2]; -PKA) was 0.3%.

With RRRRHGRWRPSASST [ICP4tide] the “Phosphorylation (cpm)” value ([2]; +PKA) was 182104 cpm, the “γ^32 P incorporated (%)” value ([2]; +PKA) was 6.2% and the “Ratio**” value ([2]; +PKA) was 26.2. The “Phosphorylation (cpm)” value ([2]; -PKA) was 6946 cpm, the “γ^32 P incorporated (%)” value ([2]; -PKA) was 0.24% and the Km ([2]; Lineweaver-Burk, PKA catalytic subunits, 4 min at 30° C., 60 μM ATP) was 39 µM. The “phosphorylation by PKA, in words” value ([2]; compared with Kemptide) was “strongly phosphorylated”.

Compound “protein kinase A type I catalytic subunit (Bos taurus)” has a Km [3] of 9 µM.
